target: T1, mGlyT-1b (Mus musculus, UniProt P28571); assay: Glycine Uptake Inhibition Assay (mGlyT-1b); format: cell-based
T1 construct: host or cells: Flp-in-CHO
T1 sequence (P28571 1-651 isoform P28571-2): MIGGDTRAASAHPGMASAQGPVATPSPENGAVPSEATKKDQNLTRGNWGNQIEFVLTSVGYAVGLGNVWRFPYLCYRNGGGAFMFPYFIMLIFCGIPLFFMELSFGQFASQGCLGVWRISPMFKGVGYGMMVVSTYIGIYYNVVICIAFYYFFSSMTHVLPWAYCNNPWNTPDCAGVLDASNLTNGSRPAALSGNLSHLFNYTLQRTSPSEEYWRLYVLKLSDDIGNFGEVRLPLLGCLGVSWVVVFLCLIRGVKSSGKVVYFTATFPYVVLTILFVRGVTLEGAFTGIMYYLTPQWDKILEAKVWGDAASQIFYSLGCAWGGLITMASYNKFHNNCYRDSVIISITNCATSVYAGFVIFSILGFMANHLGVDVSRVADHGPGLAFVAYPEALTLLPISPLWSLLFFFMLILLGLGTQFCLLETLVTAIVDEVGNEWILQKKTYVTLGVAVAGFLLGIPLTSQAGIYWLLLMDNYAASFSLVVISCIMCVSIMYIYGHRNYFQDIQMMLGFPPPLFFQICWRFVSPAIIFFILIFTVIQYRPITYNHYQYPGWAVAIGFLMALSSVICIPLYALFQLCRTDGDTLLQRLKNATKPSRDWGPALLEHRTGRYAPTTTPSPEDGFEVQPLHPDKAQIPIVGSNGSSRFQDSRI
Description: DMEM complete medium: Nutrient mixture F-12 (Gibco Life-technologies), fetal bovine serum (FBS) 5%, (Gibco life technologies), Penicillin/Streptomycin 1% (Gibco life technologies), Hygromycin 0.6 mg/ml (Gibco life technologies), Glutamine 1 mM Gibco life technologies)
Uptake buffer (UB): 150 mM NaCl, 10 mM Hepes-Tris, pH 7.4, 1 mM CaCl2, 2.5 mM KCl, 2.5 mM MgSO4, 10 mM (+) D-glucose.
Flp-in™-CHO (Invitrogen Cat n° R758-07) cells stably transfected with mGlyT1b cDNA.
Glycine Uptake Inhibition Assay (mGlyT-1b)
On day 1 mammalian cells, (Flp-in™-CHO), transfected with mGlyT-1b cDNA, were plated at the density of 40,000 cells/well in complete F-12 medium, without hygromycin in 96-well culture plates. On day 2, the medium was aspirated and the cells were washed twice with uptake buffer (UB). The cells were then incubated for 20 min at 22° C. with either (i) no potential competitor, (ii) 10 mM non-radioactive glycine, (iii) a concentration of a potential inhibitor. A range of concentrations of the potential inhibitor was used to generate data for calculating the concentration of inhibitor resulting in 50% of the effect (e.g. IC50, the concentration of the competitor inhibiting glycine uptake of 50%). A solution was then immediately added containing [^3H]-glycine 60 nM (11-16 Ci/mmol) and 25 μM non-radioactive glycine. The plates were incubated with gentle shaking and the reaction was stopped by aspiration of the mixture and washing (three times) with ice-cold UB. The cells were lysed with scintillation liquid, shaken 3 hours and the radioactivity in the cells was counted using a scintillation counter.

| SMILES | IC50 |
| --- | --- |
| O=C(CN(Cc1ccc(F)c(F)c1)C(=O)c1ccc(Cl)cc1)Nc1cccc(Cl)c1 [Example 2, 4-Chloro-N-[(3-chloro-phenylcarbamoyl)-methyl]-N-(3,4-difluoro-benzyl)-benzamide] | 0.265 µM |
| O=C(CN(Cc1cc(F)cc(F)c1)C(=O)c1ccc(Cl)cc1)Nc1cccc(Cl)c1 [Example 3, 4-Chloro-N-[(3-chloro-phenylcarbamoyl)-methyl]-N-(3,5-difluoro-benzyl)-benzamide] | 0.184 µM |
| COc1ccc(C(=O)N(CC(=O)Nc2cccc(Cl)c2)Cc2ccsc2)cc1 [Example 10, N-[(3-Chloro-phenylcarbamoyl)-methyl]-4-methoxy-N-thiophen-3-ylmethyl-benzamide] | 0.285 µM |
| COc1ccc(C(=O)N(CC(=O)Nc2cccc(Cl)c2)Cc2cc(Cl)cc(Cl)c2)cc1 [Example 12, N-[(3-Chloro-phenylcarbamoyl)-methyl]-N-(3,5-dichloro-benzyl)-4-methoxy-benzamide] | 0.243 µM |
| O=C(CN(Cc1ccccc1)C(=O)c1ccc(F)cc1)Nc1cccc(Cl)c1 [Example 15, N-Benzyl-N-[(3-chloro-phenylcarbamoyl)-methyl]-4-fluoro-benzamide] | 0.312 µM |
| COc1ccc(C(=O)N(CC(=O)Nc2ccc(Cl)c(Cl)c2)Cc2cccs2)cc1 [Example 18, N-[(3,4-Dichloro-phenylcarbamoyl)-methyl]-4-methoxy-N-thiophen-2-ylmethyl-benzamide] | 0.257 µM |
| COc1ccc(C(=O)N(CC(=O)Nc2ccc(Cl)c(Cl)c2)c2ccccc2F)cc1 [Example 21, N-[(3,4-Dichloro-phenylcarbamoyl)-methyl]-N-(2-fluoro-phenyl)-4-methoxy-benzamide] | 0.315 µM |
| COc1ccc(C(=O)N(CC(=O)Nc2cccc(Cl)c2)c2ccccc2)cc1 [Example 28, N-[(3-Chloro-phenylcarbamoyl)-methyl]-4-methoxy-N-phenyl-benzamide] | 0.267 µM |
| N#Cc1cccc(C(=O)N(CC(=O)Nc2ccc(Cl)c(Cl)c2)c2ccccc2)c1 [Example 31, 3-Cyano-N-[(3,4-dichloro-phenylcarbamoyl)-methyl]-N-phenyl-benzamide] | 0.35 µM |
| O=C(CN(C(=O)c1ccccc1F)c1ccccc1)Nc1ccc(Cl)c(Cl)c1 [Example 39, N-[(3,4-Dichloro-phenylcarbamoyl)-methyl]-2-fluoro-N-phenyl-benzamide] | 0.291 µM |
| COc1ccc(C(=O)N(CC(=O)Nc2ccc(Cl)c(Cl)c2)c2ccccc2)cc1 [Example 41, N-[(3,4-Dichloro-phenylcarbamoyl)-methyl]-4-methoxy-N-phenyl-benzamide] | 0.276 µM |
| N#Cc1ccc(C(=O)N(CC(=O)Nc2cccc(C(F)(F)F)c2)Cc2ccccc2Cl)cc1 [Example 43, N-(2-Chloro-benzyl)-4-cyano-N-[(3-trifluoromethyl-phenylcarbamoyl)-methyl]-benzamide] | 0.339 µM |
| O=C(CN(Cc1ccccc1Cl)C(=O)c1ccc(Cl)cc1)Nc1cccc(C(F)(F)F)c1 [Example 53, 4-Chloro-N-(2-chloro-benzyl)-N-[(3-trifluoromethyl-phenylcarbamoyl)-methyl]-benzamide] | 0.241 µM |
| O=C(CN(Cc1ccccc1Cl)C(=O)c1ccc(OC(F)(F)F)cc1)Nc1cccc(C(F)(F)F)c1 [Example 54, #N!-(2-Chloro-benzyl)-4-trifluoromethoxy-#N!-[(3-trifluoromethyl-phenylcarbamoyl)-methyl]-benzamide] | 0.196 µM |

Stronger by IC50, values ahead:

| IC50 | SMILES |
| --- | --- |
| 0.052 µM | O=C(CN(Cc1c(F)cccc1F)C(=O)c1ccc(Cl)cc1)Nc1cccc(Cl)c1 [Example 1, 4-Chloro-N-[(3-chloro-phenylcarbamoyl)-methyl]-N-(2,6-difluoro-benzyl)-benzamide] |
| 0.074 µM | O=C(CN(Cc1cccc(F)c1F)C(=O)c1ccc(Cl)cc1)Nc1cccc(Cl)c1 [Example 4, 4-Chloro-N-[(3-chloro-phenylcarbamoyl)-methyl]-N-(2,3-difluoro-benzyl)-benzamide] |
| 0.16 µM | O=C(CN(Cc1ccc(F)cc1F)C(=O)c1ccc(Cl)cc1)Nc1cccc(Cl)c1 [Example 5, 4-Chloro-N-[(3-chloro-phenylcarbamoyl)-methyl]-N-(2,4-difluoro-benzyl)-benzamide] |
| 0.165 µM | O=C(CN(Cc1cc(F)ccc1F)C(=O)c1ccc(Cl)cc1)Nc1cccc(Cl)c1 [Example 6, 4-Chloro-N-[(3-chloro-phenylcarbamoyl)-methyl]-N-(2,5-difluoro-benzyl)-benzamide] |
| 0.128 µM | O=C(CN(Cc1cccc(F)c1)C(=O)c1ccc(Cl)cc1)Nc1cccc(Cl)c1 [Example 8, 4-Chloro-N-[(3-chloro-phenylcarbamoyl)-methyl]-N-(3-fluoro-benzyl)-benzamide] |
| 0.074 µM | O=C(CN(Cc1ccccc1F)C(=O)c1ccc(Cl)cc1)Nc1cccc(Cl)c1 [Example 9, 4-Chloro-N-[(3-chloro-phenylcarbamoyl)-methyl]-N-(2-fluoro-benzyl)-benzamide] |
| 0.1 µM | COc1ccc(C(=O)N(CC(=O)Nc2cccc(Cl)c2)Cc2c(F)cccc2F)cc1 [Example 11, N-[(3-Chloro-phenylcarbamoyl)-methyl]-N-(2,6-difluoro-benzyl)-4-methoxy-benzamide] |
| 0.024 µM | COc1ccc(C(=O)N(CC(=O)Nc2cccc(Cl)c2)Cc2cccc(Cl)c2)cc1 [Example 14, N-(3-Chloro-benzyl)-N-[(3-chloro-phenylcarbamoyl)-methyl]-4-methoxy-benzamide] |
| 0.156 µM | O=C(CN(Cc1ccccc1)C(=O)c1ccc(Cl)cc1)Nc1cccc(Cl)c1 [Example 16, N-Benzyl-4-chloro-N-[(3-chloro-phenylcarbamoyl)-methyl]-benzamide] |
| 0.077 µM | O=C(CN(Cc1cccs1)C(=O)c1ccc(Cl)cc1)Nc1cccc(Cl)c1 [Example 17, 4-Chloro-N-[(3-chloro-phenylcarbamoyl)-methyl]-N-thiophen-2-ylmethyl-benzamide] |
| 0.164 µM | COc1ccc(C(=O)N(CC(=O)Nc2cccc(Cl)c2)Cc2c(Cl)cccc2Cl)cc1 [Example 19, N-[(3-Chloro-phenylcarbamoyl)-methyl]-N-(2,6-dichloro-benzyl)-4-methoxy-benzamide] |
| 0.148 µM | COc1ccc(C(=O)N(CC(=O)Nc2cccc(C(F)(F)F)c2)c2ccccc2)cc1 [Example 27, 4-Methoxy-N-phenyl-N-[(3-trifluoromethyl-phenylcarbamoyl)-methyl]-benzamide] |
| 0.154 µM | O=C(CN(C(=O)c1ccc(C(F)(F)F)nc1)c1ccccc1)Nc1ccc(Cl)c(Cl)c1 [Example 37, N-[(3,4-Dichloro-phenylcarbamoyl)-methyl]-N-phenyl-6-trifluoromethyl-nicotinamide] |
| 0.06 µM | O=C(CN(Cc1ccccc1Cl)C(=O)c1cc2ccccc2s1)Nc1cccc(C(F)(F)F)c1 [Example 51, Benzo[b]thiophene-2-carboxylic acid (2-chloro-benzyl)-[(3-trifluoromethyl-phenylcarbamoyl)-methyl]-amide] |
| 0.153 µM | O=C(CN(Cc1ccccc1Cl)C(=O)c1cccc(F)c1)Nc1cccc(C(F)(F)F)c1 [Example 52, N-(2-Chloro-benzyl)-3-fluoro-N-[(3-trifluoromethyl-phenylcarbamoyl)-methyl]-benzamide] |
| 0.097 µM | O=C(CN(Cc1ccccc1Cl)C(=O)c1ccc(F)cc1)Nc1cccc(C(F)(F)F)c1 [Example 55, N-(2-Chloro-benzyl)-4-fluoro-N-[(3-trifluoromethyl-phenylcarbamoyl)-methyl]-benzamide] |

— patent publication US7589089B2, “Inhibitors for GlyT-1” (Hoffmann-La Roche Inc., priority 2006, dated 2009)
